Measured values: patent US20050090522A1 (priority 2001, published 2005)

The compounds below were run on HIV-1 (assay: HIV-1 single-round infectious luciferase reporter virus (pseudotype) assay in HeLa CD4 CCR5 cells). Conditions: Human immunodeficiency virus 1, HeLa-CD4/CCR5, read-out: Average % inhibition at 10 μM.
Assay type: cell-based
Method: • Virus production—Human embryonic Kidney cell line, 293, propagated in Dulbecco's Modified Eagle Medium (Life Technologies, Gaithersburg, Md.) containing 10% fetal Bovine serum (FBS, Sigma, St. Louis, Mo.). • Virus infection—Human epithelial cell line, HeLa, expressing the HIV-1 receptors CD4 and CCR^5 was propagated in Dulbecco's Modified Eagle Medium (Life Technologies, Gaithersburg, Md.) containing 10% fetal Bovine serum (FBS, Sigma, St. Louis, Mo.) and supplemented with 0.2 mg/mL Geneticin (Life Technologies, Gaithersburg, Md.) and 0.4 mg/mL Zeocin (Invitrogen, Carlsbad, Calif.). […] Transfections were performed using lipofectAMINE PLUS reagent as described by the manufacturer (Life Technologies, Gaithersburg, Md.). Experiment • 1. Compound was added to HeLa CD4 CCR5 cells plated in 96 well plates at a cell density of 5×10^4 cells per well in 100 μl Dulbecco's Modified Eagle Medium containing 10% fetal Bovine serum at a concentration of […]. • 2. 100 μl of single-round infectious reporter virus in Dulbecco's Modified Eagle Medium was then added to the plated cells and compound at an approximate multiplicity of infection (MOI) of 0.01, resulting in a final volume of 200 μl per well and a final compound concentration of <10 μM. • 3. Samples were harvested 72 h after infection. • 4. Viral infection was monitored by measuring luciferase expression from viral DNA in the infected cells using a luciferase reporter gene assay kit (Roche Molecular Biochemicals, Indianapolis, Ind.). Infected cell supernatants were removed and 50 μl of Dulbecco's Modified Eagle Medium (without phenol red) and 50 μl of luciferase assay reagent reconstituted as described by the manufacturer (Roche Molecular Biochemicals, Indianapolis, Ind.) was added per well. Luciferase activity was then quantified by measuring luminescence using a Wallac microbeta scintillation counter. • 5. […] An EC50 provides a method for comparing the antiviral potency of the compounds of this invention. The effective concentration for fifty percent inhibition (EC50) was calculated with the Microsoft Excel Xlfit curve fitting software. For each compound, curves were generated from percent inhibition calculated at 10 different concentrations by using a four paramenter logistic model (model 205). Table 1 is the key for the data in Tables 2-4. Cytoxicity assays were conducted with the same HeLa using methodology well known in the art.
In Table 5, X2, X4 etc. indicates the point of attachment. […] The data at 10 μM was calculated in the following manner:
For compounds tested at concentrations less than 10 μM, the percent inhibition at 10 μM was determined by extrapolation using the XLfit curve fitting feature of the Microsoft Excel spreadsheet software. Curves were obtained from 10 data points (% inhibition determined at 10 concentrations of compound) by using a four parameter logistic model (XLfit model 205: y=A+((B−A)/(I+((C/x)^D))), where, A=minimum y, B=maximum y, C=logEC50, D=slope factor, and x and y are known data values. Extrapolations were performed with the A and B parameters unlocked. […]

Row | Compound | inhibition at 10 µM
1 | C[C@@H]1CN(C(=O)c2ccccc2)CCN1C(=O)C(=O)c1c[nH]c2c(-c3ccc(F)cc3)nccc12 [Example 1, 1-benzoyl-3-(R)-methyl-4-[(7-(4-fluorophenyl)-6-azaindol-3-yl)-oxoacetyl]-piperazine] | 56%

Same assay, conditions: Human immunodeficiency virus 1, HeLa-CD4/CCR5, read-out: EC50 Group from TABLE 1, HeLa CD4 CCR5 cells, single-round infectious luciferase reporter virus

Row | Compound | EC50
2 | COc1cnc(-c2cnc(N3CCNCC3)cn2)c2[nH]cc(C(=O)C(=O)N3CCN(C(=O)c4ccccc4)CC3)c12 [Example 177, 1-benzoyl-4-[(4-methoxy-7-(2-(N-piperazinyl)-pyrazin-5-yl)-6-azaindol-3-yl)-oxoacetyl]piperazine] | < 1 µM
3 | COc1cnc(-c2cc3ccccc3o2)c2[nH]cc(C(=O)C(=O)N3CCN(C(=O)c4ccccc4)CC3)c12 [Example 98] | < 1 µM
4 | COc1ccc(-c2ncc(OC)c3c(C(=O)C(=O)N4CCN(C(=O)c5ccccc5)CC4)c[nH]c23)cn1 [Example 69, 1-benzoyl-4-[(4-methoxy-7-(6-methoxy-pyridin-3-yl)-6-azaindol-3-yl)-oxoacetyl]piperazine] | < 1 µM
5 | COc1cnc(-c2cnc(NC(=O)c3ccncc3)s2)c2[nH]cc(C(=O)C(=O)N3CCN(C(=O)c4ccccc4)CC3)c12 [Example 169] | < 1 µM
6 | COc1cnc(-c2cnc(C)nc2)c2[nH]cc(C(=O)C(=O)N3CCN(C(=O)c4ccccc4)CC3)c12 [Example 171, 1-benzoyl-4-[(4-methoxy-7-(2-methyl-pyrimidin-5-yl)-6-azaindol-3-yl)-oxoacetyl]piperazine] | < 1 µM
7 | CCN(CC)C(=O)c1cnc(-c2ncc(OC)c3c(C(=O)C(=O)N4CCN(C(=O)c5ccccn5)CC4)c[nH]c23)cn1 [Example 184, 1-picolinoyl-4-[(4-methoxy-7-(2-diethylaminocarbonyl-pyrazin-5-yl)-6-azaindol-3-yl)-oxoacetyl]piperazine] | < 1 µM
8 | C[C@@H]1CN(C(=O)c2ccccc2)CCN1C(=O)C(=O)c1c[nH]c2c(-c3cncnc3)nccc12 [Example 16, 1-benzoyl-3-(R)-methyl-4-[(7-(pyrimidin-5-yl)-6-azaindol-3-yl)-oxoacetyl]piperazine] | < 1 µM
9 | COc1cnc(-n2nccc2C)c2[nH]cc(C(=O)C(=O)N3CCN(C(=O)c4ccccc4)CC3)c12 [Example 240, 1-benzoyl-4-[(4-methoxy-7-(5-methyl-pyrazol-1-yl)-6-azaindol-3-yl)-oxoacetyl]piperazine] | < 1 µM
10 | O=C(C(=O)N1CCN(C(=O)c2ccccc2)CC1)c1c[nH]c2c(-n3cccn3)ncc(F)c12 [Example 219] | < 1 µM
11 | C[C@@H]1CN(C(=O)c2ccccc2)CCN1C(=O)C(=O)c1c[nH]c2c(-c3cncc(O)n3)nccc12 [Example 121] | < 1 µM
12 | COc1cnc(-c2cnc(O)cn2)c2[nH]cc(C(=O)C(=O)N3CCN(C(=O)c4ccccc4)CC3)c12 [Example 97, 1-(benzoyl)-4-[(4-methoxy-7-(2-hydroxyl-pyrazin-5-yl)-6-azaindol-3-yl)-oxoacetyl]piperazine] | < 1 µM
13 | CCCS(=O)(=O)c1ncn(-c2ncc(OC)c3c(C(=O)C(=O)N4CCN(C(=O)c5ccccc5)CC4)c[nH]c23)n1 [Example 290, 1-benzoyl-4-[(4-methoxy-7-(3-(propane-1-sulfonyl)-[1,2,4]triazol-1-yl)-6-azaindol-3-yl)-oxoacetyl]piperazine] | < 1 µM
14 | O=C(C(=O)N1CCN(C(=O)c2ccccc2)CC1)c1c[nH]c2c(-c3ccnnc3)ncc(F)c12 [Example 30, 1-benzoyl-4-[(4-fluoro-7-(pyridazin-4-yl)-6-azaindol-3-yl)-oxoacetyl]piperazine] | < 1 µM
15 | C[C@@H]1CN(C(=O)c2ccccc2)CCN1C(=O)C(=O)c1c[nH]c2c(-c3ccc(N)nc3)nccc12 [Example 113, (R)-1-benzoyl-3-methyl-4-[(7-(2-amino-pyridin-5-yl)-6-azaindol-3-yl)-oxoacetyl]piperazine] | < 1 µM
16 | C[C@@H]1CN(C(=O)c2ccccc2)CCN1C(=O)C(=O)c1c[nH]c2c(-c3ccc(F)cc3)nccc12 [Example 1, 1-benzoyl-3-(R)-methyl-4-[(7-(4-fluorophenyl)-6-azaindol-3-yl)-oxoacetyl]-piperazine] | < 1 µM
17 | COc1cnc(-n2ccc(S(=O)(=O)c3ccc(C)cc3)n2)c2[nH]cc(C(=O)C(=O)N3CCN(C(=O)c4ccccc4)CC3)c12 [Example 286, 1-benzoyl-4-[(4-methoxy-7-(3-(toluene-4-sulfonyl)-pyrazol-1-yl)-6-azaindol-3-yl)-oxoacetyl]piperazine] | < 1 µM
18 | COc1cnc(-c2cnccn2)c2[nH]cc(C(=O)C(=O)N3CCN(C(=O)c4ncccc4C)CC3)c12 [Example 200] | < 1 µM
19 | COc1cnc(-c2cn(C)c(=O)cn2)c2[nH]cc(C(=O)C(=O)N3CCN(C(=O)c4ccccc4)CC3)c12 [Example 138, 1-(benzoyl)-4-[(4-methoxy-7-(1-methylpyrazin-2-on-5-yl)-6-azaindol-3-yl)-oxoacetyl]piperazine] | < 1 µM
20 | COC(=O)c1ccc(-c2ccn(-c3ncc(OC)c4c(C(=O)C(=O)N5CCN(C(=O)c6ccccc6)CC5)c[nH]c34)n2)cc1 [Example 293, 1-benzoyl-4-[(4-methoxy-7-(3-(4-methoxycarbonylphenyl)-pyrazol-1-yl)-6-azaindol-3-yl)-oxoacetyl]piperazine] | < 1 µM
21 | COc1cnc(-n2ccc(COC(=O)CC(C)(C)C(=O)O)n2)c2[nH]cc(C(=O)C(=O)N3CCN(C(=O)c4ccccc4)[C@H](C)C3)c12 (stereo in doubt) [Example 295, 2,2-Dimethyl-succinic acid 4-(1-{3-[2-(4-benzoyl-3-methyl-piperazin-1-yl)-2-oxo-acetyl]-4-methoxy-1H-pyrrolo[2,3-c]pyridin-7-yl}-1H-pyrazol-3-ylmethyl) ester] | < 1 µM

Same assay, conditions: Human immunodeficiency virus 1, HeLa-CD4/CCR5, read-out: EC50 Group from Table 1, Table 2-1; HeLa CD4 CCR5 cells, single-round luciferase reporter virus

Row | Compound | EC50
22 | COc1cnc(-c2cnccn2)c2[nH]cc(C(=O)C(=O)N3CCN(C(=O)c4ccccn4)C(C)C3)c12 (stereo not shown) [Example 194, 2-methyl-1-picolinoyl-4-[(4-methoxy-7-(pyrazin-2-yl)-6-azaindol-3-yl)-oxoacetyl]piperazine] | < 1 µM
23 | COc1cnc(-c2ccc(S(C)(=O)=O)cc2)c2[nH]cc(C(=O)C(=O)N3CCN(C(=O)c4ccccn4)[C@H](C)C3)c12 [Example 268] | < 1 µM
24 | COc1cnc(-n2ccc(CCC(=O)O)n2)c2[nH]cc(C(=O)C(=O)N3CCN(C(=O)c4ccccc4)[C@H](C)C3)c12 [Example 234, (R)-1-benzoyl-2-methyl-4-[(4-methoxy-7-(3-(2-hydroxylcarbonylethan-1-yl)-pyrazol-1-yl)-6-azaindol-3-yl)-oxoacetyl]piperazine] | < 1 µM
25 | COc1cnc(-c2nc(-c3cccc(Cl)c3)n[nH]2)c2[nH]cc(C(=O)C(=O)N3CCN(C(=O)c4ccccc4)[C@H](C)C3)c12 [Example 339] | < 1 µM

Same assay, conditions: Human immunodeficiency virus 1, HeLa-CD4/CCR5, read-out: EC50 Group from Table 1, Table 4; HeLa CD4 CCR5 cells, single-round luciferase reporter virus

Row | Compound | EC50
26 | Cc1cc(-c2cc(Cl)nc3c(C(=O)C(=O)N4CCN(C(=O)c5ccccc5)C[C@H]4C)c[nH]c23)[nH]n1 [Example 64, 1-benzoyl-3-(R)-methyl-4-[(5-chloro-7-(3-methyl-pyrazol-5-yl)-4-azaindol-3-yl)-oxoacetyl]piperazine] | < 1 µM
27 | C[C@@H]1CN(C(=O)c2ccccc2)CCN1C(=O)C(=O)c1c[nH]c2c(-c3nccs3)ccnc12 [Example 53, 1-benzoyl-3-(R)-methyl-4-[(7-(thiazol-2-yl)-4-azaindol-3-yl)-oxoacetyl]piperazine] | < 1 µM
28 | Cc1c[nH]c(-c2cc(Cl)nc3c(C(=O)C(=O)N4CCN(C(=O)c5ccccc5)C[C@H]4C)c[nH]c23)n1 [Example 61, l-benzoyl-3-(R)-methyl-4-[(5-chloro-7-(4-methyl-imidazol-2-yl)-4-azaindol-3-yl)-oxoacetyl]piperazine] | < 1 µM
29 | Cc1csc(-c2ccnc3c(C(=O)C(=O)N4CCN(C(=O)c5ccccc5)C[C@H]4C)c[nH]c23)c1 [Example 86, 1-benzoyl-3-(R)-methyl-4-[(7-(4-methyl-thiophen-2-yl)-4-azaindol-3-yl)-oxoacetyl]piperazine] | < 1 µM
30 | C[C@@H]1CN(C(=O)c2ccccc2)CCN1C(=O)C(=O)c1c[nH]c2c(-c3cc4ccccc4s3)ccnc12 [Example 127] | < 1 µM
31 | COc1ccc(-c2ccnc3c(C(=O)C(=O)N4CCN(C(=O)c5ccccc5)C[C@H]4C)c[nH]c23)cc1 [Example 67, 1-benzoyl-3-(R)-methyl-4-[(7-(4-methoxyphenyl)-4-azaindol-3-yl)oxoacetyl]piperazine] | < 1 µM
